Data on 29 compounds can be found in patent US20210246115A1 (Bioimics AB, priority 2017, published 2021).

Converted amounts (≈) assume the structure as drawn. Where a name gives a salt, the structure may show the parent alone. Read-outs that look alike come from different tables or passages of the source.

Experiment [1] has as its system Staphylococcus aureus subsp. aureus (ATCC29213). Description: MIC, broth microdilution (CLSI), Staphylococcus aureus ATCC29213. Format: cell-based. The following applies: for MIC: Staphylococcus aureus. (In general: In broth dilution the organism is exposed to a series of concentrations in liquid medium.)
For experiment [2], the system named is Escherichia coli (ATCC25922). Description: MIC, broth microdilution (CLSI), Escherichia coli. The note with it: for MIC: Escherichia coli, ATCC25922, read-out: E. coli ATCC 25922 MIC, Table XIII.
Experiment [3] concerns E. coli RNase P RNA, M1 RNA. Description: Inhibition of bacterial RNase P activity, IC50 determination (cleavage of pATSerUG by M1 RNA). Format: biochemical. The following applies: NI: No inhibition.
Where [4] appears, read: ATCC29213, Table XIII, read-out: S. aureus ATCC 29213 MIC.
Setting [5] is: ATCC29213, read-out: S. aureus ATCC 29213 MIC, Table XIII.

One may read the MIC as the lowest concentration that inhibits growth of the organism. By IC50 is commonly meant the concentration that gives 50% inhibition. The low end stands for higher potency, the high end for lower potency. For the compound `Cc1cccc(C(CCNC2CCN(C(N)=O)CC2)c2cn(C3CCCCC3)c3ccccc23)c1.Cl.Cl` (stereo not drawn) [Compound 374, 4-((3-(1-cyclohexyl-1H-indol-3-yl)-3-(m-tolyl)propyl)amino)piperidine-1-carboxamide hydrochloride salt], the minimal inhibitory concentration (MIC) was 16 µg/mL in experiment [1] (setting [4]) and above 128 µg/mL in experiment [2]. In experiment [3], this compound returned an IC50 of 53 µM.
For the compound `Cl.Cl.NCCCNCCC(c1cn(C2CCCCC2)c2ccc(Br)cc12)C1CCCCC1` (stereo not drawn) [Compound 429, N1-(3-(5-bromo-1-cyclohexyl-1H-indol-3-yl)-3-cyclohexylpropyl) propane-1,3-diamine hydrochloride salt], the minimum inhibitory concentration (MIC) in experiment [1] (setting [4]) worked out at 2 µg/mL; in experiment [2], 4 µg/mL. The same compound came in with a half-maximal inhibitory concentration (IC50) in experiment [3] of 11 µM.
Turning to `Cl.Cl.NCCCNCCC(c1cccc(Cl)c1)c1cn(C2CCCCC2)c2ccccc12` (stereo not drawn) [Compound 356, N1-(3-(3-chlorophenyl)-3-(1-cyclohexyl-1H-indol-3-yl)propyl) propane-1,3-diamine hydrochloride salt], the MIC in experiment [1] (setting [4]) and in experiment [2] was 4 µg/mL in each case. Also, the 50% inhibitory concentration (IC50) in experiment [3] was found to be 37 µM.
Take `CC(=O)N1CCC(NCCC(c2cccc(C)c2)c2cn(C3CCCCC3)c3ccccc23)CC1.Cl` (stereo not drawn) [Compound 373, 1-(4-((3-(1-cyclohexyl-1H-indol-3-yl)-3-(m-tolyl)propyl)amino)piperidin-1-yl) ethan-1-one salt]: the MIC in experiment [1] (setting [4]) was 8 µg/mL; in experiment [2], above 128 µg/mL. The same compound returned an IC50 in experiment [3] of 120 µM.
The like results for `Cl.Cl.N#Cc1ccc2c(c1)c(C(CCN[C@H]1CC[C@H](N)CC1)C1CCCCC1)cn2C1CCCCC1` (stereo partly drawn) [Compound 407, 3-(3-(((1R,4R)-4-aminocyclohexyl)amino)-1-cyclohexylpropyl)-1-cyclohexyl-1H-indole-5-carbonitrile salt] were, in that order, 4 µg/mL, 8 µg/mL and 23 µM.
Regarding `CCN(Cc1cn(CC2CCCCC2)c2ccccc12)CC1CCN(C)CC1` [Compound 303, N-((1-(cyclohexylmethyl)-1H-indol-3-yl)methyl)-N-((1-methylpiperidin-4-yl)methyl)ethanamine], the minimal inhibitory concentration (MIC) in experiment [1] (setting [4]) and in experiment [2] was 128 µg/mL (≈ 335 µM) throughout.
For `Cc1cccc(C(CCNCCCN)c2cn(C3CCCCC3)c3ccc(C(=O)O)cc23)c1` (stereo not drawn) [Compound 387, 3-(3-((3-aminopropyl)amino)-1-(m-tolyl)propyl)-1-cyclohexyl-1H-indole-5-carboxylic acid compound with 2,2,2-trifluoroacetaldehyde (1:2)], the MIC in experiment [1] (setting [4]) is 128 µg/mL (≈ 286 µM); in experiment [2] it was above 128 µg/mL.
Turning to `Cc1cccc(C(CCNC2CCC(N)CC2)c2cn(C3CCCCC3)c3ccccc23)c1` [Compound 392, (1S,4S)- -N1-(3-(1-cyclohexyl-1H-indol-3-yl)-3-(m-tolyl)propyl) cyclohexane-1,4-diamine hydrochloride salt], the “S. aureus ATCC 29213 MIC” value in experiment [1] (Table XIII, hydrochloride salt) was found to be 8 µg/mL. For the same compound, the “E. coli ATCC 25922 MIC” value in experiment [2] (Table XIII, hydrochloride salt) turned out to be 8 µg/mL.
As to `Cc1cccc(C(CCNCC2OC(CO)C(O)C(O)C2O)c2cn(C3CCCCC3)c3ccccc23)c1` (stereo not drawn) [Compound 391, 2-(((3-(1-cyclohexyl-1H-indol-3-yl)-3-(m-tolyl)propyl)amino)methyl)-6-(hydroxymethyl) tetrahydro-2H-pyran-3,4,5-triol], the results for the minimal inhibitory concentration (MIC) in experiment [1] (setting [5]) and in experiment [2] were 64 µg/mL (≈ 122 µM) and 128 µg/mL (≈ 245 µM), respectively.
With `Cl.Cl.c1cncc(C(CCNC2CCNCC2)c2cn(C3CCCCC3)c3ccccc23)c1` (stereo not drawn) [Compound 329, N-(3-(1-cyclohexyl-1H-indol-3-yl)-3-(pyridin-3-yl)propyl)piperidin-4-amine hydrochloride salt], the results for the minimum inhibitory concentration (MIC) in experiment [1] (setting [4]) and in experiment [2] were 32 µg/mL and 64 µg/mL, respectively.
The like results for `Cc1cccc(CC(CCNCCCN)c2cn(C3CCCCC3)c3ccccc23)c1.Cl.Cl` (stereo not drawn) [Compound 419, N1-(3-(1-cyclohexyl-1H-indol-3-yl)-4-(m-tolyl)butyl)propane-1,3-diamine hydrochloride salt] were, in that order, 8 µg/mL and 8 µg/mL.
For the compound `Cl.Cl.c1cncc(C(CCNC2CCNCC2)c2cn(CC3CCCCC3)c3ccccc23)c1` (stereo not drawn) [Compound 320, N-(3-(1-(cyclohexylmethyl)-1H-indol-3-yl)-3-(pyridin-3-yl)propyl) piperidin-4-amine hydrochloride salt], the MIC in experiment [1] (setting [4]) and in experiment [2] was 128 µg/mL each time.
As to `CCN(Cc1cn(CC2CCCCC2)c2ccccc12)CC1CCNCC1` [Compound 302, hydrochloride salt], the MIC in experiment [1] (setting [5]) and in experiment [2] was 128 µg/mL throughout.
In the case of `N#Cc1ccc2c(c1)c(C1CCCC(NCCCN)C1)cn2C1CCCCC1` (stereo not drawn) [Compound 389, 3-(3-((3-aminopropyl)amino)cyclohexyl)-1-cyclohexyl-1H-indole-5-carbonitrile], the MIC in experiment [1] (setting [4]) worked out at 16 µg/mL (≈ 42.3 µM); in experiment [2], 32 µg/mL (≈ 84.5 µM).
The corresponding values for `Cl.Cl.N[C@H]1CC[C@H](NCCC(c2ccncc2)c2cn(C3CCCCC3)c3ccccc23)CC1` (stereo partly drawn) [Compound 340, (1r,4r)-N1-(3-(1-cyclohexyl-1H-indol-3-yl)-3-(pyridin-4-yl)propyl) cyclohexane-1,4-diamine hydrochloride salt] are 64 µg/mL and 128 µg/mL.
The like results for `Cl.Cl.NCCCNCCC(c1cccnc1)c1cn(C2CCCCC2)c2ccccc12` (stereo not drawn) [Compound 331, N1-(3-(1-cyclohexyl-1H-indol-3-yl)-3-(pyridin-3-yl)propyl)propane-1,3-diamine hydrochloride salt] were, in that order, 32 µg/mL and 128 µg/mL.
For the compound `Cl.Cl.N[C@H]1CC[C@H](NCCC(c2cn(C3CCCCC3)c3ccccc23)C2CCCCC2)CC1` (stereo partly drawn) [Compound 378], the minimum inhibitory concentration (MIC) in experiment [1] (setting [4]) was determined as 4 µg/mL; in experiment [2] it was 8 µg/mL.
The corresponding values for `Cc1cccc(C(CCNCCCCN)c2cn(C3CCCCC3)c3ccccc23)c1.Cl.Cl` (stereo not drawn) [Compound 350, N1-(3-(1-cyclohexyl-1H-indol-3-yl)-3-(m-tolyl)propyl)butane-1,4-diamine salt] are 8 µg/mL and 8 µg/mL.
`Cc1cccc(C(CCNC2CCC(N)CC2)c2cn(CC3CCNCC3)c3ccccc23)c1` (stereo not drawn) [Compound 313, N1-(3-(1-(piperidin-4-ylmethyl)-1H-indol-3-yl)-3-(m-tolyl)propyl)cyclohexane-1,4-diamine hydrochloride salt]: the figures for the MIC in experiment [1] (setting [5]) and in experiment [2] were 16 µg/mL and above 128 µg/mL, respectively.
The like results for `c1ccc2c(c1)c(CNCC1CCNCC1)cn2CC1CCCCC1` [Compound 300, 1-(1-(cyclohexylmethyl)-1H-indol-3-yl)-N-(piperidin-4-ylmethyl)methanamine hydrochloride salt] were, in that order, 128 µg/mL and 128 µg/mL.
Consider `Cc1cccc(C(CCNCCCN)c2cn(CC3CCOCC3)c3ccc(C#N)cc23)c1` (stereo not drawn) [Compound 318, 3-(3-((3-aminopropyl)amino)-1-(m-tolyl)propyl)-1-((tetrahydro-2H-pyran-4-yl)methyl)-1H-indole-5-carbonitrile hydrochloride salt], for which the MIC in experiment [1] (setting [5]) was 64 µg/mL; in experiment [2] it was above 128 µg/mL.
For the compound `Cc1cccc(C(CCOCCCN(C)C)c2cn(C3CCCCC3)c3ccccc23)c1` (stereo not drawn) [Compound 364, 3-(3-(1-cyclohexyl-1H-indol-3-yl)-3-(m-tolyl)propoxy)-N,N-dimethylpropan-1-amine salt], the minimal inhibitory concentration (MIC) in experiment [1] (setting [4]) was 8 µg/mL; in experiment [2], above 128 µg/mL.
Take `Cc1cccc(C(CCNC2CCC(N)CC2)c2cn(CC3CCOCC3)c3ccc(C#N)cc23)c1` (stereo not drawn) [Compound 312, 3-(3-((4-aminocyclohexyl)amino)-1-(m-tolyl)propyl)-1-((tetrahydro-2H-pyran-4-yl)methyl)-1H-indole-5-carbonitrile hydrochloride salt]: the MIC in experiment [1] (setting [5]) was found to be 32 µg/mL; in experiment [2] it was 64 µg/mL.
For the compound `Cl.Cl.N#Cc1ccc2c(c1)c(C(CCNC1CCNCC1)C1CCCCC1)cn2C1CCCCC1` (stereo not drawn) [Compound 406, 1-cyclohexyl-3-(1-cyclohexyl-3-(piperidin-4-ylamino)propyl)-1H-indole-5-carbonitrile salt], the minimum inhibitory concentration (MIC) in experiment [1] (setting [4]) and in experiment [2] was 8 µg/mL each time.
Turning to `Cc1cccc(C(CCNCCCN2CCCC2)c2cn(C3CCCCC3)c3ccccc23)c1` (stereo not drawn) [Compound 367, 3-(1-cyclohexyl-1H-indol-3-yl)-N-(3-(pyrrolidin-1-yl)propyl)-3-(m-tolyl)propan-1-amine], the figures for the MIC in experiment [1] (setting [4]) and in experiment [2] were 64 µg/mL (≈ 140 µM) and above 128 µg/mL, respectively.
In the case of `Cc1cccc(C(CCNC2CCNCC2)c2cn(CC3CCOCC3)c3ccc(C#N)cc23)c1` (stereo not drawn) [Compound 316, 3-(3-(piperidin-4-ylamino)-1-(m-tolyl)propyl)-1-((tetrahydro-2H-pyran-4-yl)methyl)-1H-indole-5-carbonitrile hydrochloride salt], the minimum inhibitory concentration (MIC) in experiment [1] (setting [5]) and in experiment [2] was 64 µg/mL throughout.
`Cl.Cl.NC1CCC(NCCC(c2cccnc2)c2cn(C3CCCCC3)c3ccccc23)CC1` (stereo not drawn) [Compound 330, N1-(3-(1-cyclohexyl-1H-indol-3-yl)-3-(pyridin-3-yl)propyl)cyclohexane-1,4-diamine hydrochloride salt]: the MIC was 64 µg/mL in experiment [1] (setting [4]) and above 128 µg/mL in experiment [2].
In the case of `c1cncc(C(CCNC2CCNCC2)c2cn(C3CC4CCC3C4)c3ccccc23)c1` (stereo not drawn) [Compound 325, hydrochloride salt], the minimal inhibitory concentration (MIC) in experiment [1] (setting [5]) and in experiment [2] was 64 µg/mL in each case.
`Cc1cccc(C(CCNC2CCC(N)CC2)c2cn(CC3CCOCC3)c3ccc(CN)cc23)c1` (stereo not drawn) [Compound 311, N1-(3-(5-(aminomethyl)-1-((tetrahydro-2H-pyran-4-yl)methyl)-1H-indol-3-yl)-3-(m-tolyl)propyl) cyclohexane-1,4-diamine hydrochloride salt]: the MIC is 128 µg/mL in experiment [1] (setting [5]) and above 128 µg/mL in experiment [2].
